Experimental data from patent publication US20050282841A1 (priority 2004, published 2005).

Experiments:
Assay type in all cases: in vivo
Settings in all cases: on tomatoes, wheat and vine crops
[1] = system: Late blight (Phytophthora infestans)
[2] = system: Powdery mildew (Erisyphe araminis); assay: fungicidal effectiveness against Powdery mildew
[3] = system: Brown rust (Puccinia recondita); assay: fungicidal effectiveness against Brown rust
[4] = system: Septoria leaf spot (Septoria tritici); assay: fungicidal effectiveness against Septoria leaf spot

CO/C=C(/C(=O)OC(c1ccccc1)(c1cncnc1)c1ccc(Cl)cc1Cl)c1ccccc1Oc1cc(Oc2ccccc2C#N)ncn1 (racemic) [Example 1, (RS)-2,4-dichloro-α-(pyrimidin-5-yl)benzhydryl (E)-2-{2-[6-(2-cyanophenoxy)pyrimidin-4-yloxy]phenyl}-3-methoxyacrylate]
effective: effectiveness against fungal pathogen Late blight (Phytophthora infestans) [1] | effectiveness against fungal pathogen Powdery mildew (Erisyphe araminis) [2] | effectiveness against fungal pathogen Brown rust (Puccinia recondita) [3] | effectiveness against fungal pathogen Septoria leaf spot (Septoria tritici) [4]

CO/N=C(/C(=O)OC(Cn1cncn1)(c1ccc(Cl)cc1)C(C)C1CC1)c1ccccc1COc1ccccc1C (racemic) [Example 2, (2RS,3RS;2RS,3SR)-2-(4-chlorophenyl)-3-cyclopropyl-1-(1H-1,2,4-triazol-1-yl)butan-2-yl (E)-methoxyimino[α-(o-tolyloxy)-o-tolyl]acetate]
effective: effectiveness against fungal pathogen Late blight (Phytophthora infestans) [1] | effectiveness against fungal pathogen Powdery mildew (Erisyphe araminis) [2] | effectiveness against fungal pathogen Brown rust (Puccinia recondita) [3] | effectiveness against fungal pathogen Septoria leaf spot (Septoria tritici) [4]

CO/N=C(/C(=O)OC(CCc1ccc(Cl)cc1)(Cn1cncn1)C(C)(C)C)c1ccccc1CO/N=C(\C)c1cccc(C(F)(F)F)c1 (racemic) [Example 3, (RS)-1-p-chlorophenyl-4,4-dimethyl-3-(1H-1,2,4-triazol-1-ylmethyl)pentan-3-yl (E)-methoxyimino-{(E)-α-[1-(α,α,α-trifluoro-m-tolyl)ethylideneaminooxy]-o-tolyl}acetate]
effective: effectiveness against fungal pathogen Late blight (Phytophthora infestans) [1] | effectiveness against fungal pathogen Powdery mildew (Erisyphe araminis) [2] | effectiveness against fungal pathogen Brown rust (Puccinia recondita) [3] | effectiveness against fungal pathogen Septoria leaf spot (Septoria tritici) [4]
